Measurements taken from ChEMBL document CHEMBL4376816, “Discovery of the Oral Leukotriene C4 Synthase Inhibitor (1S,2S)-2-({5-[(5-Chloro-2,4-difluorophenyl)(2-fluoro-2-methylpropyl)amino]-3-methoxypyrazin-2-yl}carbonyl)cyclopropanecarboxylic Acid (AZD9898) as a New Treatment for Asthma” (J Med Chem, 2019).

Key:
[1] = Volume of distribution at steady state in cynomolgus monkey at 1 mg/kg, iv or 2 mg/kg, po after 48 hrs; type: ADME, organism-based, Macaca fascicularis; settings: in vivo, read-out: Vdss
[2] = target: T1, Solute carrier organic anion transporter family member 1B1 (Homo sapiens, UniProt Q9Y6L6); experiment: Inhibition of OATP1B1 (unknown origin) expressed in HEK293 cells measured after 0.5 to 20 mins by scintillation counting analysis; type: ADME, cell-based
T1 sequence (Q9Y6L6 whole entry): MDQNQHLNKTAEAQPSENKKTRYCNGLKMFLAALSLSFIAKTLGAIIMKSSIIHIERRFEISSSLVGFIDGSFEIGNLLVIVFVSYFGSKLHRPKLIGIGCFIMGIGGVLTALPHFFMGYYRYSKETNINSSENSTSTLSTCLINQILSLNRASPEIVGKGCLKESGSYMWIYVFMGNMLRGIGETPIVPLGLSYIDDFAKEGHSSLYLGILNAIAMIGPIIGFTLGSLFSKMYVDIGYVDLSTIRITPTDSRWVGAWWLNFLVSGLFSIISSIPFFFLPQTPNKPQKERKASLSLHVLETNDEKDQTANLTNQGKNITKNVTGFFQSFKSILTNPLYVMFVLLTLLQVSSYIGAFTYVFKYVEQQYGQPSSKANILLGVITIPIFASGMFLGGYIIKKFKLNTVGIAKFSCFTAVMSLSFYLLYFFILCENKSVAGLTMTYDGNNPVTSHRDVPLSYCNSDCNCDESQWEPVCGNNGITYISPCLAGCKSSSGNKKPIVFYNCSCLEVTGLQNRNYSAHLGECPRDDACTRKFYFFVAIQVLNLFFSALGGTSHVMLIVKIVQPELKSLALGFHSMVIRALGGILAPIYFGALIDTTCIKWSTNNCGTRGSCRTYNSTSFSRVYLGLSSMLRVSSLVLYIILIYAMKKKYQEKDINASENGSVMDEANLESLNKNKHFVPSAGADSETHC

[3] = Clearance in Han Wistar rat at 0.5 mg/kg, iv or 1 mg/kg, po after 24 hrs; type: ADME, organism-based; settings: in vivo
Blood [4] = experiment: Effect on arachidonic acid pathway in calcium ionophore A23187-stimulated healthy human whole blood assessed as increase in lipoxin level preincubated for 30 mins followed by calcium ionophore A23187 stimulation and measured after 60 mins by LC-MS analysis; type: functional, tissue-based
Blood [5] = experiment: Effect on arachidonic acid pathway in calcium ionophore A23187-stimulated asthmatic human whole blood assessed as increase in lipoxin level preincubated for 30 mins followed by calcium ionophore A23187 stimulation and measured after 60 mins by LC-MS analysis; type: functional, tissue-based
[6] = Volume of distribution at steady state in Beagle dog at 1 mg/kg, iv infusion or 2 mg/kg, po via gavage after 48 hrs; type: ADME, organism-based, Canis lupus familiaris; settings: in vivo, read-out: Vdss
[7] = Genotoxicity in Salmonella typhimurium by Ames test; type: toxicity; settings: salmonella enterica subsp. enterica serovar typhimurium
[8] = target: T2, Potassium voltage-gated channel subfamily KQT member 1 (Homo sapiens, UniProt P51787); experiment: Inhibition of human KvLQT1 expressed in CHOK1 cells at < 33 uM at -80 mV holding potential by Ionwork-based analysis; type: cell-based
T2 sequence (P51787 whole entry): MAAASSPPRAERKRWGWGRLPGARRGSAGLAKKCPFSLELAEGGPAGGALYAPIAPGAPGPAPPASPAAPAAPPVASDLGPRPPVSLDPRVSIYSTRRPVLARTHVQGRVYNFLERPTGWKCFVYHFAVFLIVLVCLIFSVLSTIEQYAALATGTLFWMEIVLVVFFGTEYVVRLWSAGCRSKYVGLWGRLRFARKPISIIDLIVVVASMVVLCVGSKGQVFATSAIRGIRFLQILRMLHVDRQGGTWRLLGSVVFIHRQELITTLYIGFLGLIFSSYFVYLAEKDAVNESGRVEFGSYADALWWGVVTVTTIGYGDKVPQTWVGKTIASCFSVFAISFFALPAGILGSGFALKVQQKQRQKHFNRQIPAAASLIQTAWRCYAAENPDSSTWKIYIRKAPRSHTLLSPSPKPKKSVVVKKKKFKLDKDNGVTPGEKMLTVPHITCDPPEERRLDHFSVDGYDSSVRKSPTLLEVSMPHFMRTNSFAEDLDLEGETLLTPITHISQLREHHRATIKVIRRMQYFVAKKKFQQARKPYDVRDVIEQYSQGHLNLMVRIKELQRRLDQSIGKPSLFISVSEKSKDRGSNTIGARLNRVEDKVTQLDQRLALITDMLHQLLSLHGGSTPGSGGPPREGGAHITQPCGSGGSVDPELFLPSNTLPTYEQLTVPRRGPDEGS

Cytochrome P450 1A2 = target: T3, Cytochrome P450 1A2 (Homo sapiens, UniProt P05177); experiment: Inhibition of recombinant human CYP1A2 using coumarin based substrate by fluorescence assay; type: ADME
T3 sequence (P05177 whole entry): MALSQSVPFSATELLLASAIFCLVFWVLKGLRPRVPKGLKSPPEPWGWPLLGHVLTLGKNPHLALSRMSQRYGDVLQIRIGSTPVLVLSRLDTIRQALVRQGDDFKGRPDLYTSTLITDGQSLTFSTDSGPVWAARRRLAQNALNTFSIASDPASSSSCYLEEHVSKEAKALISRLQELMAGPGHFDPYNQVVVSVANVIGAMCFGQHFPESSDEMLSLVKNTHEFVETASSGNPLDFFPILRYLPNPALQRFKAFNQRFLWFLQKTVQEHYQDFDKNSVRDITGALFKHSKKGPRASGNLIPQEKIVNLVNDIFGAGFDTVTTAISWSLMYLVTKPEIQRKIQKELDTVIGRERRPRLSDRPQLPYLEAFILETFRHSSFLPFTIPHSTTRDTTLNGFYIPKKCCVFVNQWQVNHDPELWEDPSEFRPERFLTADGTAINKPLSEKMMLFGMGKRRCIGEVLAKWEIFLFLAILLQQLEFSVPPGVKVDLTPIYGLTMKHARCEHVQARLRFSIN

[9] = Oral bioavailability in cynomolgus monkey at 2 mg/kg after 48 hrs; type: ADME, organism-based, Macaca fascicularis; settings: in vivo
[10] = Fraction unbound in Sprague-Dawley rat plasma by equilibrium dialysis based LC-MS analysis; type: ADME, cell-free
[11] = Cmax in po dosed rat at NOAEL measured after 7 days; type: ADME, organism-based; parameters: route oral; settings: in vivo
[12] = Clearance in cynomolgus monkey at 1 mg/kg, iv or 2 mg/kg, po after 48 hrs; type: ADME, organism-based, Macaca fascicularis; settings: in vivo
[13] = Effective half life in Beagle dog at 1 mg/kg, iv infusion or 2 mg/kg, po via gavage after 48 hrs; type: ADME, organism-based, Canis lupus familiaris; settings: in vivo, read-out: t1/2eff (converted)
[14] = Intrinsic clearance in human hepatocytes at 1 uM assessed as per million cells after 2 to 60 mins by LC-MS/MS analysis; type: ADME, cell-based, Hepatocyte; settings: read-out: CLH

With `COc1nc(N(CC(C)(C)F)c2cc(Cl)c(F)cc2F)cnc1C(=O)[C@H]1C[C@@H]1C(=O)O` [AZD-9898] as the compound, how does the Vd [1] read?
Its Vd is 0.6 L/kg.

What about the INH [2] of the same compound?
The INH was 3.2 µM.

And the clearance [3]?
The clearance was 2.3 mL/min/kg.

What about the Activity (Blood [4]) of the same compound?
Its Activity is “Dose-dependent effect”.

And the Activity (Blood [5])?
The Activity was “Dose-dependent effect”.

And the Vd [6]?
The Vd was 1 L/kg.

What about the Activity [7] of the same compound?
Its Activity is “Non-Toxic”.

And the “inhibition (INH)” value [8]?
Its value is “Not Active”.

What about the IC50 (Cytochrome P450 1A2) of the same compound?
The IC50 was greater than 30 µM.

What about the bioavailability [9] of the same compound?
The bioavailability was 90%.

And the fraction unbound [10]?
Its fraction unbound is 0.025.

What about the Cmax at […] [11] of the same compound?
The Cmax at […] was 349 µM.

What about the clearance [12] of the same compound?
The clearance was 0.6 mL/min/kg.

And the half-life [13]?
Its half-life is 6.1 h.

What about the hepatocyte CLint at 1 µM [14] of the same compound?
The hepatocyte CLint at 1 µM was less than 1.2 µL/min/1e6 cells.
